Assay results from patent EP4578449A1, “PHARMACEUTICAL COMBINATION OF FAK INHIBITOR AND MICROTUBULE INHIBITOR AND USE THEREOF” (Inxmed (Nanjing) Co., Ltd., priority 2022, dated 2024).
pIC50: −log10 of the molar value.

What was measured:
Format in all cases: cell-based
[1] = system: mouse colon cancer CT26 cells; experiment: Docetaxel/Eribulin/Paclitaxel and Defactinib: microscopy and CRT/Annexin-V/PI flow cytometry; conditions: 48 hours, Defactinib 5 µM, Docetaxel 0.3 µM, Eribulin 0.3 µM, Paclitaxel 6 µM, alone or combined with Defactinib
Experimental: CT26 cells were cultured in monolayer in vitro under the following conditions: RPMI-1640 medium with 10% fetal bovine serum, 37°C, 5% CO2. Trypsin was used for routine digestion and passage treatment two to three times a week. When the cells were in the exponential growth phase and the adherent confluence reached 80%-90%, the cells were harvested and plated.
(§1) CT26 cells were digested with trypsin, and then the cells were collected and counted. Based on the counting results, the cells were diluted with the corresponding complete culture medium to a concentration of 50,000 cells per milliliter. Then the cells were plated in 12-well cell culture plates, with 2 ml of cell suspension per well, i.e., 100,000 cells.
(§2) After plating, the cells were cultured in a 37°C and 5% CO2 incubator.
After 24 hours of plating, the test compounds Docetaxel, Eribulin, Paclitaxel and Defactinib were added to different wells, respectively.
(§3) After 48 hours of drug action, the cells were photographed using a microscope, and then trypsinized and collected for flow cytometry staining.
The cells were washed twice with flow buffer (DPBS + 2% FBS). 0.5 µL of AF647 Anti-Calreticulin Antibody was added to each well, and mixed well. The cells were incubated at 4°C in the dark for 20 min. After washing once with flow buffer, 195 µL of Annexin-V-FITC binding solution was added, and the cells were gently mixed well. 5 µL of Annexin-V-FITC antibody was added. After further mixing, 10 µL of PI dye was added and mixed well. The cells were incubated at room temperature in the dark for 15 min. The cells were then subjected to flow cytometry.
(§4) After the assay, the cell positive rate was analyzed by Flowjo (V10) software.

[2] = system: SK-OV-3 cells; experiment: FAK silencing combined with Docetaxel, Calreticulin (ICD target) by flow cytometry; conditions: SK-OV-3 cells transfected with FAK siRNA 50 nM for 24 hours, then 1 µM Docetaxel 48 hours; vs control siRNA
Experimental: • 1. FAK silencing combined with Docetaxel promotes apoptosis of ovarian cancer cells […] The siRNA technology was used in the in vitro assay to reduce the expression level of FAK, and combined with Docetaxel for 48 hours; flow cytometry was used to detect apoptosis in control (DMSO) and FAK silenced cells • 2. FAK silencing combined with Docetaxel can effectively promote the production of ICD in ovarian cancer cells SK-OV-3 The siRNA technology was used in the in vitro assay to reduce the expression level of FAK, and combined with Docetaxel for 48 hours. Flow cytometry was used to detect the expression of Calreticulin, the main target of ICD.
Assay antibodies: recombinant Alexa Fluor® 647 fluorescent Anti-Calreticulin antibody (Abcam, ab196159), Annexin V apoptosis detection kit (Invitrogen, A35110).
FAK siRNA was provided by Gene Pharma, and the sequence is shown in the following table: • F: […]; • R: […]
• 1. […] After the transfection for 24 hours, the cells were treated with 0.3 µM or 1 µM of Docetaxel for 48 hours, respectively. The cells were stained using Annexin V kit and detected by flow cytometry. The apoptotic values were counted, compared with those of the control group, and plotted using Graphpad 8.0. […] The cells were fluorescent stained with Calreticulin antibody, and the staining results were analyzed by flow cytometry.

[3] = system: colon cancer CT26 cells; experiment: CCK8 cell viability assay, Docetaxel with or without IN10018; conditions: Mus musculus, 72 hours, Docetaxel alone
Experimental: CT26 cells were cultured with RPMI-1640 (Shanghai Basalmedia, catalog number: L210KJ, batch number: F210916) + 10% FBS (Gibco, catalog number: 10099-141c, batch number: 2158737cp), and passaged twice. When the cells were in good condition, they were placed in a 96-well plate, 3000 cells/well. After the cells were spread for 24 hours, the culture medium containing Docetaxel was added. 10 drug concentrations were set. The first concentration was 30 µM, which was serially diluted 3-fold, and the last one was the control, with the drug concentration of 0. Three compound wells were set for each drug concentration. At the same time, another group of cells was established with the same drug concentration as that in the above method. The difference was that: 5 µM IN10018 was added to each well, the drugs were mixed, and the plate was cultured in a 5% CO2 incubator at 37 °C for 72 hours.
After 72 hours of drug action, the cells were observed under a microscope. 10 µl of CCK8 detection reagent (Cellorlab, classification number: CX001M, batch number: 2571100) was added to each well, and the plate was incubated in a 5% CO2 incubator at 37 °C for 2-4 hours. Then the plate was read using microplate reader OD450 ([…]).

[4] = system: SK-OV-3 cells; experiment: FAK silencing combined with Docetaxel, Annexin V apoptosis by flow cytometry; conditions: SK-OV-3 cells transfected with FAK siRNA 50 nM for 24 hours, then 0.3 µM or 1 µM Docetaxel 48 hours; FAK silencing group compared with control siRNA group
[5] = system: mouse breast cancer 4T1 cells; experiment: Docetaxel/Eribulin and Defactinib: microscopy and CRT/Annexin-V/PI flow cytometry; conditions: 48 hours, Defactinib 5 µM, Docetaxel 0.3 µM, Eribulin 0.1 µM, alone or combined with Defactinib
Experimental: 4T1 cells were cultured in a monolayer in vitro in RPMI-1640 medium with 10% fetal bovine serum in a 37 °C, 5% CO2 incubator. Trypsin was used for routine digestion and passage treatment two to three times a week. When the cells were in the exponential growth phase and the adherent confluence reached 80%-90%, the cells were harvested and plated.
as §1, with “4T1” for “CT26”
as §2
After 24 hours of plating, the test compounds Defactinib, Docetaxel and Eribulin were added to different wells, respectively.
as §3
The cells were washed twice with flow buffer (DPBS + 2% FBS). 0.5 µL of AF647 Anti-Calreticulin Antibody was added to each well, and mixed well. The cells were incubated at 4°C in the dark for 20 min. […]
as §4

`CC(=O)O[C@@]12CO[C@@H]1C[C@H](O)[C@@]1(C)C(=O)[C@H](O)C3=C(C)[C@@H](OC(=O)[C@H](O)[C@@H](NC(=O)OC(C)(C)C)c4ccccc4)C[C@@](O)([C@@H](OC(=O)c4ccccc4)[C@H]21)C3(C)C` [Docetaxel] was tested, and the “cell status (cell death) under a microscope” value [1] was “obvious”, the “release and exposure of Calreticulin” value [2] was “significantly enhanced” and the pIC50 [3] was 6.72. For the same compound, the “apoptosis (Annexin V kit)” value [4] was “significantly enhanced” and the “cell status (cell death) under a microscope” value [5] was “obvious”.
